{"source": "patent US11027026B2", "about": "“Polymer, and contrast agent for photoacoustic imaging, including the polymer” (CANON KABUSHIKI KAISHA, priority 2014, dated 2021)", "origin": "cited, not measured here", "conditions": "in vivo", "data": [{"compound": "CC1(C)C(/C=C/C=C/C=C/C=C2/N(CCCCS(=O)(=O)[O-])c3ccc4ccccc4c3C2(C)C)=[N+](CCCCS(=O)(=O)[O-])c2ccc3ccccc3c21.[Na+]", "note": "[ICG, indocyanine green]", "values": [{"measurement": "Half-life in blood", "value": "about several minutes"}]}]}
